Where a SMILES comes first, the peptide text is derived from it. [ ]: non-standard residue; d: D form. ξ: configuration not given here. ξβ3hE = NC(CCC(=O)O)CC(=O)O; ξβ3hK = NCCCCC(N)CC(=O)O; ξβ3hA = CC(N)CC(=O)O

The test system of series [1] is experimental autoimmune encephalomyelitis in SJL/J mice. Kind of series: EAE prevention (pre-treatment) setup in SJL/J mice. Particulars: prevention: 400 μg in IFA a week prior to immunization with MBP(85–99). Format: in vivo, mouse. The procedure: EAE was induced and assessed as described previously. SJL/J (female; 6–8 week old) were injected subcutaneously with 100 μg of MBP(85–99) (two immunizations spaced a week apart) emulsified in complete Freund's adjuvant (CFA). Immunized mice were also given an intra-peritoneal injection of pertussis toxin (200 ng) on day 0 and 2. Severity of clinical disability was scored on a scale of 0 to 5, where, 0, no detectable signs of EAE; 1, complete tail paralysis; 2, wobbly gait; 3, complete hind limb paralysis; 4, complete hind and fore limb paralysis or moribund; 5, dead.

Series [2] has the same test system. Kind of series: EAE treatment setup in SJL/J mice. As to conditions: treatment: 100 μg subcutaneously daily for a week. The format is in vivo, mouse.
Protocol: Animals were perfused intra-cardially with ice cold PBS and 4% paraformaldehyde (PFA) sequentially under deep anesthesia. Thereafter intact spinal cord tissue was dissected out, equilibrated with 30% sucrose and embedded in tissue freezing media (Polyfreez, Polysciences). Subsequently, transverse sections (15 μM thick) were cut through lumbar region in a cryotome (Thermo) and collected in storage buffer (30% glycerol and ethylene glycol in PBS). Sections were retrieved from storage buffer, transferred into citrate buffer (10 mM, pH 6.0) and incubated at 65°C for 30 minutes for antigen retrieval. After 30 minute incubation period, sections were equilibrated with PBS and blocked using 3% bovine serum albumin and 1% normal serum for 2 hours at room temperature. […]
The subject of series [3] is RRMS. Particulars: cited from earlier work. From the text: However, therapeutic potencies of such antigen-specific modalities has always been moderate due to their peptidic nature e.g. in the case of GA it is only 20–30 percent. Expectedly, it is their minimal stability in proteolytic milieu and thus inefficient presentation on antigen presenting cells (APCs) which perhaps gets translated into their reduced efficacy.

The target of series [4] is α-chymotrypsin (Bos taurus, UniProt P00766). Kind of series: Proteolysis assay with chymotrypsin, RP-HPLC. The format is in vitro ADME. As to conditions: chymotrypsin 0.1 μg/ml, peptide 1 mg/ml, PBS with 0.01% sodium azide, 37°C. The protocol: Aliquots were drawn at various time points and analyzed by high pressure liquid chromatography (HPLC, Shimadzu). Degradation mixtures were resolved on a C18 column (Phenomenix) using acetonitrile/water with 0.1% trifluroacetic acid (TFA) as a solvent system at a flow rate of 0.4 ml/minute. Analogs un-cleaved in the reaction mixture were quantified in terms of percent peak area. […] Aliquots were drawn and analyzed on a polyacrylamide gel (15%).

Turning to glatiramer acetate [GA], in series [1], the “reduction of disease severity (cumulative disability score)” value is reported as 40–50%. In addition, in series [2], the “duration of therapeutic effect post-treatment” value is ~ 1.7 weeks and the “reduction of disease severity (cumulative disability score)” value is on record as 30–35%. The therapeutic potency in series [3] is 20–30%.

As for `CC(CC(=O)O)NC(=O)CC(C)NC(=O)CC(C)NC(=O)CC(C)NC(=O)CC(CCCCN)NC(=O)[C@H](Cc1ccc(O)cc1)NC(=O)[C@H](C)NC(=O)[C@H](CCC(=O)O)NC(=O)[C@@H](NC(=O)[C@H](CCCCN)NC(=O)[C@@H]1CCCN1C(=O)CC(CCCCN)NC(=O)CC(N)CCC(=O)O)C(C)C` (stereo partly drawn) [S18] (H-[ξβ3hE][ξβ3hK]PKVEAY[ξβ3hK][ξβ3hA][ξβ3hA][ξβ3hA][ξβ3hA]-OH), in series [4] (RP-HPLC), the “time up to which detectable in the reaction mixture” value is listed as at most 2 days. In addition, in series [4] (after 12 hours, RP-HPLC percent peak area, n ≥ 3), the “percent remaining intact in reaction mixture” value is reported as above 90%.

Regarding `CC(C)[C@H](NC(=O)[C@H](CCCCN)NC(=O)[C@@H]1CCCN1C(=O)[C@H](CCCCN)NC(=O)[C@@H](N)CCC(=O)O)C(=O)N[C@@H](CCC(=O)O)C(=O)N[C@@H](C)C(=O)N[C@@H](Cc1ccc(O)cc1)C(=O)N[C@@H](CCCCN)C(=O)N[C@@H](C)C(=O)N[C@@H](C)C(=O)N[C@@H](C)C(=O)N[C@@H](C)C(=O)N1CCC[C@H]1C(=O)N[C@@H](C)C(=O)O` [J5], the percent hydrolyzed in series [4] (in 6 hours, RP-HPLC percent peak area) is above 50%.

These data come from PMC4314633, “Homo-β-amino acid containing MBP(85–99) analogs alleviate experimental autoimmune encephalomyelitis” (Scientific Reports, 2015).
